Test results published in patent publication US20080214583A1, “7H-Pyrrolo[2,3-D]Pyrimidine Derivatives, As Well As Their Therapeutically Acceptable Salts, Pharmaceutical Preparations Containing Them And Process For Production The Active Agent” (priority 2004, published 2008).

Which melting point does the source give for `Cc1c(C)n(CCCN2CCOCC2)c2ncnc(NN=Cc3ccc(O)c([N+](=O)[O-])c3)c12` [Example 13, 4-{[5,6-dimethyl-7-(3-morpholine-4-yl-propyl)-7H-pyrrolo[2,3-d]pyrimidine-4-yl]hydrazonomethyl}-2-nitro-phenol] here?
Its melting point is 158.8 to 161.5 °C.

With `Cc1c(C)n(Cc2ccccc2)c2ncnc(C(=NN)c3ccc(N(C)C)cc3)c12` [Example 31, {4-[(7-benzyl-5,6-dimethyl-7H-pyrrolo[2,3-d]pyrimidine-4-yl)-hydrazonomethyl]-phenyl}-dimethyl-amine] as the compound, how does the melting point read?
The melting point was 219 to 221 °C.

For `Cc1c(C)n(Cc2ccccc2)c2ncnc(C(=NN)c3ccc(O)c([N+](=O)[O-])c3)c12` [Example 28, 4-[(7-benzyl-5,6-dimethyl-7H-pyrrolo[2,3-d]pyrimidine-4-yl)-hydrazonomethyl]-2-nitro-phenol], which melting point is on record?
The melting point was 202 to 205 °C.

With `Cc1c(C)n(Cc2ccccc2)c2ncnc(NN=C3C(=O)Nc4ccc(Cl)cc43)c12` [Example 48, 3-[(7-benzyl-5,6-dimethyl-7H-pyrrolo[2,3-d]pyrimidine-4-yl)-hydrazono]-5-chloro-1,3-dihydro-indole-2-on] as the compound, how does the melting point read?
Its melting point is 302 to 303 °C.

For `Cc1c(C)n(-c2cccc(Cl)c2)c2ncnc(NN=C3C(=O)Nc4c(Cl)ccc(Cl)c43)c12` [Example 41, 4,7-dichloro-3-{[5,6-dimethyl-7-(3-chloro-phenyl)-7H-pyrrolo[2,3-d]pyrimidine-4-yl]-hydrazono}-1,3-dihydro-indole-2-on], which melting point is on record?
The melting point was 284 to 285 °C.

For `Cc1c(C)n(Cc2ccccc2)c2ncnc(NN=C3C(=O)Nc4cc(Cl)cc(Cl)c43)c12` [Example 49, 3-[(7-benzyl-5,6-dimethyl-7H-pyrrolo[2,3-d]pyrimidine-4-yl)-hydrazono]-4,6-dichloro-1,3-dihydro-indole-2-on], which melting point is on record?
Its melting point is 299 °C.

Which melting point does the source give for `Cc1c(C#N)c(Nc2ncnc3c2c(C)c(C)n3-c2cccc(Cl)c2)n(Cc2ccccc2)c1C` [Example 63, 1-benzyl-2-[5,6-dimethyl-7-(3-chloro-phenyl)-7H-pyrrolo[2,3-d]pyrimidine-4-yl-amino]-4,5-dimethyl-1H-pyrrol-3-carbonitrile] here?
The melting point was 228.1 to 229 °C.

Which melting point does the source give for `Cc1c(C)n(-c2cccc(Cl)c2)c2ncnc(Nc3c(C#N)c(-c4ccccc4)c(-c4ccccc4)n3Cc3ccccc3)c12` [Example 62, 1-benzyl-2-[5,6-dimethyl-7-(3-chloro-phenyl)-7H-pyrrolo[2,3-d]pyrimidine-4-yl-amino]-4,5-diphenyl-1H-pyrrol-3-carbonitrile] here?
Its melting point is 187.4 to 189.3 °C.

With `Cc1c(C)n(Cc2ccccc2)c2ncnc(C(=NN)c3ccc(C#N)cc3)c12` [Example 35, 4-[(7-benzyl-5,6-dimethyl-7H-pyrrolo[2,3-d]pyrimidine-4-yl)-hydrazonomethyl]-benzonitrile] as the compound, how does the melting point read?
Its melting point is 223.5 to 225 °C.

For `Cc1c(C)n(-c2cccc(Cl)c2)c2ncnc(C(=NN)c3ccc(O)c([N+](=O)[O-])c3)c12` [Example 21, 4-{[5,6-dimethyl-7-(3-chloro-phenyl)-7H-pyrrolo[2,3-d]pyrimidine-4-yl]-hydrazonomethyl}-2-nitro-phenol], which melting point is on record?
The melting point was 204.2 to 206.5 °C.

Which melting point does the source give for `Cc1c(C)n(Cc2ccccc2)c2ncnc(NN=Cc3ccc(C(F)(F)F)cc3)c12` [Example 26, N-(7-benzyl-5,6-dimethyl-7H-pyrrolo[2,3-d]pyrimidine-4-yl)-N′-(4-trifluoromethyl-benzylidene)-hydrazine] here?
Its melting point is 165 to 166 °C.

With `Cc1c(C)n(-c2cccc(Cl)c2)c2ncnc(NN=C3C(=O)Nc4ccc(Cl)cc43)c12` [Example 40, 5-chloro-3-{[5,6-dimethyl-7-(3-chloro-phenyl)-7H-pyrrolo[2,3-d]pyrimidine-4-yl]-hydrazono}-1,3-dihydro-indole-2-on] as the compound, how does the melting point read?
The melting point was 314 to 315 °C.

For `Cc1c(C#N)c(Nc2ncnc3c2c2ccccc2n3Cc2ccccc2)n(-c2cccc(Cl)c2)c1C` [Example 64, 2-(9-benzyl-9H-1,3,9-triaza-fluorene-4-yl-amino)-1-(3-chloro-phenyl)-4,5-dimethyl-1H-pyrrol-3-carbonitrile], which melting point is on record?
Its melting point is 252.2 to 253.1 °C.

Which melting point does the source give for `COc1cc(C(=NN)c2ncnc3c2c(C)c(C)n3-c2cccc(Cl)c2)ccc1O` [Example 24, 4-{[5,6-dimethyl-7-(3-chloro-phenyl)-7H-pyrrolo[2,3-d]pyrimidine-4-yl]-hydrazonomethyl}-2-methoxy-phenol] here?
Its melting point is 146 to 187 °C.

With `Cc1c(C)n(Cc2ccccc2)c2ncnc(NN=C3C(=O)Nc4c(Cl)ccc(Cl)c43)c12` [Example 50, 3-[(7-benzyl-5,6-dimethyl-7H-pyrrolo[2,3-d]pyrimidine-4-yl)-hydrazono]-4,7-dichloro-1,3-dihydro-indole-2-on] as the compound, how does the melting point read?
Its melting point is 298 °C.

Which melting point does the source give for `N#Cc1c(-c2ccccc2)c(-c2ccccc2)n(Cc2ccccc2)c1Nc1ncnc2c1c1ccccc1n2Cc1ccccc1` [Example 66, 1-benzyl-2-(9-benzyl-9H-1,3,9-triaza-fluorene-4-yl-amino)-4,5-diphenyl-1H-pyrrol-3-carbonitrile] here?
Its melting point is greater than 90 °C.

For `Cc1c(C)n(CCCN2CCOCC2)c2ncnc(Nc3cc(C(C)(C)C)nn3-c3cccc([N+](=O)[O-])c3)c12` [Example 16, [5-tert.-butyl-2-(3-nitro-phenyl)-2H-pyrazole-3-yl]-[5,6-dimethyl-7-(3-morpholine-4-yl-propyl)-7H-pyrrolo[2,3-d]pyrimidine-4-yl]-amine], which melting point is on record?
The melting point was 120.9 to 125.3 °C.

With `Cc1ccc2c(c1)C(=NNc1ncnc3c1c(C)c(C)n3-c1cccc(Cl)c1)C(=O)N2` [Example 42, 3-{[5,6-dimethyl-7-(3-chloro-phenyl)-7H-pyrrolo[2,3-d]pyrimidine-4-yl]-hydrazono}-5-methyl-1,3-dihydro-indole-2-on] as the compound, how does the melting point read?
Its melting point is 302 to 303 °C.

With `Cc1c(C)n(-c2cccc(Cl)c2)c2ncnc(NN=C3C(=O)Nc4ccc(F)cc43)c12` [Example 43, 3-{[5,6-dimethyl-7-(3-chloro-phenyl)-7H-pyrrolo[2,3-d]pyrimidine-4-yl]-hydrazono}-5-fluoro-1,3-dihydro-indole-2-on] as the compound, how does the melting point read?
The melting point was 271 to 279 °C.

With `Cc1cc(C(=NN)c2ncnc3c2c(C)c(C)n3Cc2ccccc2)cc(C)c1O` [Example 29, 4-[(7-benzyl-5,6-dimethyl-7H-pyrrolo[2,3-d]pyrimidine-4-yl)-hydrazonomethyl]-2,6-dimethyl-phenol] as the compound, how does the melting point read?
Its melting point is 237 to 240 °C.

With `Cc1c(C)n(Cc2ccccc2)c2ncnc(NN=C3C(=O)Nc4ccc(Br)cc43)c12` [Example 45, 3-[(7-benzyl-5,6-dimethyl-7H-pyrrolo[2,3-d]pyrimidine-4-yl)-hydrazono]-5-bromo-1,3-dihydro-indole-2-on] as the compound, how does the melting point read?
The melting point was 288 to 290 °C.

For `Cc1c(C)n(-c2cccc(Cl)c2)c2ncnc(NN=C3C(=O)Nc4ccc(OC(F)(F)F)cc43)c12` [Example 44, 3-{[5,6-dimethyl-7-(3-chloro-phenyl)-7H-pyrrolo[2,3-d]pyrimidine-4-yl]-hydrazono}-5-trifluoromethoxy-1,3-dihydro-indole-2-on], which melting point is on record?
The melting point was 262 to 276 °C.

For `Cc1c(C#N)c(Nc2ncnc3c2c(C)c(C)n3Cc2ccccc2)n(Cc2ccccc2)c1C` [Example 75, 1-benzyl-2-(7-benzyl-5,6-dimethyl-7H-pyrrolo[2,3-d]pyrimidine-4-yl-amino)-4,5-dimethyl-1H-pyrrol-3-carbonitrile], which melting point is on record?
Its melting point is 236 to 239.1 °C.

For `Cc1c(C)n(-c2cccc(Cl)c2)c2ncnc(NN=C3C(=O)Nc4ccc(Br)cc43)c12` [Example 38, 5-bromo-3-{[5,6-dimethyl-7-(3-chloro-phenyl)-7H-pyrrolo[2,3-d]pyrimidine-4-yl]-hydrazono}-1,3-dihydro-indole-2-on], which melting point is on record?
The melting point was 292 to 294.5 °C.

For `Cc1c(C)n(Cc2ccccc2)c2ncnc(Nc3c(C#N)c(-c4ccccc4)c(-c4ccccc4)n3Cc3ccccc3)c12` [Example 74, 1-benzyl-2-(7-benzyl-5,6-dimethyl-7H-pyrrolo[2,3-d]pyrimidine-4-yl-amino)-4,5-diphenyl-1H-pyrrol-3-carbonitrile], which melting point is on record?
The melting point was 197.1 to 197.6 °C.

With `Cc1c(C)n(-c2cccc(Cl)c2)c2ncnc(Nc3cc(C(C)(C)C)nn3-c3cccc([N+](=O)[O-])c3)c12` [Example 4, [5-tert.-butyl-2-(3-nitro-phenyl)-2H-pyrazole-3-yl]-[7-(3-chlorophenyl)-5,6-dimethyl-7H-pyrrolo[2,3-d]pyrimidine-4-yl]-amine] as the compound, how does the melting point read?
Its melting point is 189 to 190 °C.

Which melting point does the source give for `Cc1c(C)n(Cc2ccccc2)c2ncnc(NN=C3C(=O)Nc4ccccc43)c12` [Example 46, 3-[(7-benzyl-5,6-dimethyl-7H-pyrrolo[2,3-d]pyrimidine-4-yl)-hydrazono]-1,3-dihydro-indole-2-on] here?
Its melting point is 292 to 293 °C.

For `COc1cc(C(=NN)c2ncnc3c2c(C)c(C)n3Cc2ccccc2)ccc1O` [Example 33, 4-[(7-benzyl-5,6-dimethyl-7H-pyrrolo[2,3-d]pyrimidine-4-yl)-hydrazonomethyl]-2-methoxy-phenol], which melting point is on record?
Its melting point is 220 to 221 °C.

For `Cc1c(C)n(-c2cccc(Cl)c2)c2ncnc(NN=C3C(=O)Nc4ccccc43)c12` [Example 39, 3-{[5,6-dimethyl-7-(3-chloro-phenyl)-7H-pyrrolo[2,3-d]pyrimidine-4-yl]-hydrazono}-1,3-dihydro-indole-2-on], which melting point is on record?
The melting point was 281 to 293 °C.

Which melting point does the source give for `Cc1c(C)n(Cc2ccccc2)c2ncnc(NN=Cc3cccc([N+](=O)[O-])c3)c12` [Example 32, N-(7-benzyl-5,6-dimethyl-7H-pyrrolo[2,3-d]pyrimidine-4-yl)-N′-(3-nitro-benzylidene)-hydrazine] here?
Its melting point is 103 to 109.5 °C.

For `COc1ccccc1C=NNc1ncnc2c1c(C)c(C)n2Cc1ccccc1` [Example 17, N-(7-benzyl-5,6-dimethyl-7H-pyrrolo[2,3-d]pyrimidine-4-yl)-N′-(2-methoxy-benzylidene)-hydrazine], which melting point is on record?
Its melting point is 214 to 216 °C.
